From the supplement of paper PMC11628255, “Interference of metal ions on the bioluminescent signal of firefly, Renilla, and NanoLuc luciferases in high-throughput screening assays” (Frontiers in Chemistry, 2024)

How the values were obtained:
Assay in all cases: normalised percent inhibition of luminescence (vs positive and negative controls); higher = stronger inhibition
[1] = system: NanoLuc luciferase (NLuc)
Experimental: (§1)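 Concentration-response (>=11 concentrations) of metal salts on purified FLuc, NLuc or RLuc luminescence in screening (SC) or 100 mM HEPES (H) buffer; salt pre-incubated with enzyme 10 min at RT, read 10 min after substrate. Normalised percent inhibition vs plate positive (PTC-124, isradipine, BTS) and DMSO negative controls; triplicate wells.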

[2] = system: Renilla luciferase (RLuc)
Experimental: as §1

[3] = system: firefly luciferase (FLuc)
Experimental: as §1

O.O.O.O.O.O.O.O=S(=O)([O-])[O-].[Mg+2] [magnesium sulfate]
normalised percent inhibition [%], 100 mM HEPES buffer
Conditions	[1]	[2]	[3]
metal salt concentration 0.0001 mM	6.62	-6.9	-19.2
metal salt concentration 0.00025 mM	1.39	-4.68	-27.4
metal salt concentration 0.0005 mM	-0.0243	-11.6	-11
metal salt concentration 0.001 mM	-0.202	-17	-24
metal salt concentration 0.025 mM	-2.3	-30.1	-31.5
metal salt concentration 0.05 mM	0.502	-11.6	-6.49
metal salt concentration 0.1 mM	1.8	-22.7	-20
metal salt concentration 0.5 mM	1.22	-0.986	-19.2
metal salt concentration 1 mM	-4.91	-23.4	-17.2
metal salt concentration 2.5 mM	-6.56	-40.4	-12.5
metal salt concentration 5 mM	-5.03	-22.4	4.85

[Cl][Pt-2]([Cl])([Cl])[Cl].[K+].[K+] [potassium tetrachloroplatinate(II)]
normalised percent inhibition [%]
Conditions	[1]	[2]	[3]
metal salt concentration 0.0001 mM, 100 mM HEPES buffer	1.21	6.41	-10.3
metal salt concentration 0.00025 mM, 100 mM HEPES buffer	-0.51	4.68	4.97
metal salt concentration 0.0005 mM, 100 mM HEPES buffer	2.19	-6.41	6.27
metal salt concentration 0.001 mM, 100 mM HEPES buffer	0.76	-11.3	12.9
metal salt concentration 0.002 mM, screening conditions buffer	6.88	13.4	23.2
metal salt concentration 0.005 mM, screening conditions buffer	2.83	5.74	28.2
metal salt concentration 0.01 mM, screening conditions buffer	1.24	8.68	32.2
metal salt concentration 0.02 mM, screening conditions buffer	5.06	2.57	39.4
metal salt concentration 0.025 mM, 100 mM HEPES buffer	4.56	8.38	39.2
metal salt concentration 0.05 mM, 100 mM HEPES buffer	10.3	-3.94	56.4
metal salt concentration 0.05 mM, screening conditions buffer	18.1	19.4	68.7
metal salt concentration 0.1 mM, 100 mM HEPES buffer	15.1	5.67	79.8
metal salt concentration 0.1 mM, screening conditions buffer	41.9	27.8	86
metal salt concentration 0.2 mM, screening conditions buffer	60.3	41.3	98.8
metal salt concentration 0.5 mM, 100 mM HEPES buffer	76.6	40.7	100.5
metal salt concentration 0.5 mM, screening conditions buffer	91.6	66.7	100.5
metal salt concentration 1 mM, 100 mM HEPES buffer	87.7	69.3	100.2
metal salt concentration 1 mM, screening conditions buffer	116	95.3	99.57
metal salt concentration 2.5 mM, 100 mM HEPES buffer	93.7	97.4	100.4
metal salt concentration 2.5 mM, screening conditions buffer	129.7	105.3	100.7
metal salt concentration 5 mM, 100 mM HEPES buffer	96.98	106	100.4
metal salt concentration 5 mM, screening conditions buffer	134.6	106.2	100.8

O=[N+]([O-])[O-].O=[N+]([O-])[O-].[Pb+2] [lead(II) nitrate]
normalised percent inhibition [%]
Conditions	[1]	[2]	[3]
metal salt concentration 0.0001 mM, 100 mM HEPES buffer	–	–	-33.9
metal salt concentration 0.00025 mM, 100 mM HEPES buffer	–	–	-19.7
metal salt concentration 0.0005 mM, 100 mM HEPES buffer	–	–	-15.9
metal salt concentration 0.001 mM, 100 mM HEPES buffer	–	–	-1.03
metal salt concentration 0.002 mM, screening conditions buffer	-1.02	-20.9	–
metal salt concentration 0.005 mM, screening conditions buffer	-3.52	-16.2	–
metal salt concentration 0.01 mM, screening conditions buffer	-2.27	-2.6	–
metal salt concentration 0.02 mM, screening conditions buffer	-3.22	-5.61	–
metal salt concentration 0.025 mM, 100 mM HEPES buffer	–	–	88.9
metal salt concentration 0.05 mM, 100 mM HEPES buffer	–	–	94.75
metal salt concentration 0.05 mM, screening conditions buffer	-4.15	-11.8	–
metal salt concentration 0.1 mM, 100 mM HEPES buffer	–	–	96.7
metal salt concentration 0.1 mM, screening conditions buffer	-7.45	-5.46	–
metal salt concentration 0.2 mM, screening conditions buffer	0.428	-6.41	–
metal salt concentration 0.5 mM, 100 mM HEPES buffer	–	–	100.1
metal salt concentration 0.5 mM, screening conditions buffer	15.7	-3.99	–
metal salt concentration 1 mM, 100 mM HEPES buffer	–	–	100.4
metal salt concentration 1 mM, screening conditions buffer	11.5	2.9	–
metal salt concentration 2.5 mM, 100 mM HEPES buffer	–	–	100.5
metal salt concentration 2.5 mM, screening conditions buffer	52	53.3	–
metal salt concentration 5 mM, 100 mM HEPES buffer	–	–	99.63
metal salt concentration 5 mM, screening conditions buffer	129	94.9	–
